Laboratory results from ChEMBL document CHEMBL1909046, “DrugMatrix in vitro pharmacology data”.
Where a SMILES comes first, the peptide text is derived from it. Bridges are numbered along the chain shown (N, C = ends). [ ]: non-standard residue; d: D form. The star is where a group is joined. Threoninol(2S,3R) = C[C@@H](O)[C@H](CO)N*

Assays:
Thromboxane-A synthase = target: T1, Thromboxane-A synthase (Homo sapiens, UniProt P24557); assay: biochemical; format: tissue-based, Platelet; settings: platelet;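 further: enzyme inhibition assay with PGH2 supplied as substrate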
T1 sequence (P24557 whole entry): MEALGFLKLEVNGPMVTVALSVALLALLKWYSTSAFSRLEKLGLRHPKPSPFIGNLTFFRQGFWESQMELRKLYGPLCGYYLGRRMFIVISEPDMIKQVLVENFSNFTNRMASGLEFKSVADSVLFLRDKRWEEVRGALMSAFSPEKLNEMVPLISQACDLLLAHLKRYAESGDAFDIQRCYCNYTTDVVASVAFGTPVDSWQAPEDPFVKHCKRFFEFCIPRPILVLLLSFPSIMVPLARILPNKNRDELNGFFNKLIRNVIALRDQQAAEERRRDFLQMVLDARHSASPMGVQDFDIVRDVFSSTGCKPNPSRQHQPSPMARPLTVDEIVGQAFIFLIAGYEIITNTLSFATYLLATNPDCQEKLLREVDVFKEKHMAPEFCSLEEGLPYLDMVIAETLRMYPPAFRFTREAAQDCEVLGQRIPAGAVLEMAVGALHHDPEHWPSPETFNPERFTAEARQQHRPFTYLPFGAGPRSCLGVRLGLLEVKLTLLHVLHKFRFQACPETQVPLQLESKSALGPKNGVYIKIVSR

Glycine receptor = Glycine receptor (Rattus norvegicus, UniProt P22771+P24524+P07727+P20781); format: cell membranes, Wistar, Spinal cord, Membrane
[1] = target: T2, 3-hydroxy-3-methylglutaryl-coenzyme A reductase (Homo sapiens, UniProt P04035); set-up: species or system Escherichia coli;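 further: enzyme inhibition assay of HMG-CoA reductase using radiolabeled [14C]HMG-CoA as substrate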
T2 sequence (P04035 whole entry): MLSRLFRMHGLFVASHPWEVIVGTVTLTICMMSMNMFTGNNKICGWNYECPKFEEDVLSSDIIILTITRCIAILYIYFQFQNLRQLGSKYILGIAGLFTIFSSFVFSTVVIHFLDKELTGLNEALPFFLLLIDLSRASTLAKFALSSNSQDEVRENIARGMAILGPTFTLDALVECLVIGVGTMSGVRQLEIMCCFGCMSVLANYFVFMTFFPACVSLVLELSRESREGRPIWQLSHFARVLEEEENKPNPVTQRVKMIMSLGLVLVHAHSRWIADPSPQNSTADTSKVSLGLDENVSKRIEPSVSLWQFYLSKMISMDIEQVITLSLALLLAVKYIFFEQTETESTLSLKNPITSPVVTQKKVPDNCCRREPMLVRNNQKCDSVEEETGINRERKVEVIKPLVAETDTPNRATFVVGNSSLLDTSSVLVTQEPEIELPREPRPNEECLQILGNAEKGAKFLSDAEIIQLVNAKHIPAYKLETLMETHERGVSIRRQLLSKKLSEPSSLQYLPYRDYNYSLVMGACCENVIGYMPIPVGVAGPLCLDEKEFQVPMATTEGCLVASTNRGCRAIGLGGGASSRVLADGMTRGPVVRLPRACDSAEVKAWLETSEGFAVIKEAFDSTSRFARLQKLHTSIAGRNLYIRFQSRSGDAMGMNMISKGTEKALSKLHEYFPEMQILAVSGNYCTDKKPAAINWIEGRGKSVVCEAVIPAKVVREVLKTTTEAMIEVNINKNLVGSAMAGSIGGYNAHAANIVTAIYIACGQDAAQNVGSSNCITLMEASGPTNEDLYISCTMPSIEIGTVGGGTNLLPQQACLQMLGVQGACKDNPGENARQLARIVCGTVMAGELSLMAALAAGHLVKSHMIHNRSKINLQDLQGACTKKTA

Leukotriene C4 synthase = target: T3, Leukotriene C4 synthase (Cavia porcellus, UniProt A6XA80); format: tissue-based, Lung;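 further: enzyme inhibition assay of leukotriene C4 synthase, using LTA4 as the substrate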
T3 sequence (A6XA80 whole entry): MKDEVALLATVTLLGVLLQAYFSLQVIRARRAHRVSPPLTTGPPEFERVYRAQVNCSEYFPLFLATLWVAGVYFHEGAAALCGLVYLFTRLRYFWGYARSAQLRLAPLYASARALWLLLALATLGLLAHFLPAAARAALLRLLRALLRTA

[2] = target: T4, Neuropeptide Y receptor type 1 (Homo sapiens, UniProt P25929); format: cell membranes, Membrane; settings: sk-n-mc
T4 sequence (P25929 whole entry): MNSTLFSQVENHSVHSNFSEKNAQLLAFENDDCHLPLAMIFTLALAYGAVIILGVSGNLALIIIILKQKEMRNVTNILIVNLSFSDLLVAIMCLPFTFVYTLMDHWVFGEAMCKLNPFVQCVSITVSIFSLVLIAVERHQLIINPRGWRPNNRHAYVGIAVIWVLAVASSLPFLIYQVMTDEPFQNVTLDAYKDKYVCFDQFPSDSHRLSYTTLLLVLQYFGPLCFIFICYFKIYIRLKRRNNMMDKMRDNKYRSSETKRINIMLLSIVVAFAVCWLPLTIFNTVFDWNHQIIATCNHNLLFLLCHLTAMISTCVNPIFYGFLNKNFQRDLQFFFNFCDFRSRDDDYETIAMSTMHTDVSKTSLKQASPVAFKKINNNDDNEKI

Cytochrome P450 1A2 = target: T5, Cytochrome P450 1A2 (Homo sapiens, UniProt P05177); settings: bti-tn-5b1-4
T5 sequence (P05177 whole entry): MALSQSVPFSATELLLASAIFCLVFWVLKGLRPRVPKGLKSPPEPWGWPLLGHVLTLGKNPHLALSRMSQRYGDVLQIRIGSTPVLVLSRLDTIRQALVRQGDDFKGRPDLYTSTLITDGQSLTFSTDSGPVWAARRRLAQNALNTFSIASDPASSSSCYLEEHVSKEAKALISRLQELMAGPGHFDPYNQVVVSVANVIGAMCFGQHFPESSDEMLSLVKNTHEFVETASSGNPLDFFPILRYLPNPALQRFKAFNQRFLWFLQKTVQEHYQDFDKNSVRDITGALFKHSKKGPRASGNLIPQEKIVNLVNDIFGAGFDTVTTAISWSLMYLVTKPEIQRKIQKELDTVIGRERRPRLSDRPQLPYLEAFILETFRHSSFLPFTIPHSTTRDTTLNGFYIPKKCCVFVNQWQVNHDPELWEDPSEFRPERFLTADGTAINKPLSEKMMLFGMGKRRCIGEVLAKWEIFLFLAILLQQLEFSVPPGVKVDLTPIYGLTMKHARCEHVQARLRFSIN
Further: in other assays of this panel Not Active means under 50% inhibition at 10 µM.

COc1ccccc1C(=O)N1CCC(Cc2ccccc2)CC1
Not Active: IC50 (Thromboxane-A synthase) | IC50 (Glycine receptor) | IC50 [1] | IC50 (Leukotriene C4 synthase) | IC50 [2] | IC50 (Cytochrome P450 1A2) | Ki (Cytochrome P450 1A2)

Cc1ccccc1C(=O)N1CCC(Cc2ccccc2)CC1
Not Active: IC50 (Thromboxane-A synthase) | IC50 (Glycine receptor) | IC50 [1] | IC50 (Leukotriene C4 synthase) | IC50 [2] | IC50 (Cytochrome P450 1A2) | Ki (Cytochrome P450 1A2)

O=C1CC[C@H](N2C(=O)c3ccccc3C2=O)C(=O)N1
Not Active: IC50 (Thromboxane-A synthase) | IC50 (Glycine receptor) | IC50 [1] | IC50 (Leukotriene C4 synthase) | IC50 [2] | IC50 (Cytochrome P450 1A2) | Ki (Cytochrome P450 1A2)

N=C(Nc1ccccc1)Nc1ccccc1
Not Active: IC50 (Thromboxane-A synthase) | IC50 (Glycine receptor) | IC50 [1] | IC50 (Leukotriene C4 synthase) | IC50 [2] | IC50 (Cytochrome P450 1A2) | Ki (Cytochrome P450 1A2)

C[C@@H](O)[C@H](CO)NC(=O)[C@@H]1CSSC[C@H](NC(=O)[C@H](N)Cc2ccccc2)C(=O)N[C@@H](Cc2ccccc2)C(=O)N[C@H](Cc2c[nH]c3ccccc23)C(=O)N[C@@H](CCCCN)C(=O)N[C@@H]([C@@H](C)O)C(=O)N1 (H-[dF]CF[dW]KTC-{Threoninol(2S,3R)}; disulfide 2-7)
Not Active: IC50 (Thromboxane-A synthase) | IC50 (Glycine receptor) | IC50 [1] | IC50 (Leukotriene C4 synthase) | IC50 [2] | IC50 (Cytochrome P450 1A2) | Ki (Cytochrome P450 1A2)

S=C=Nc1cccc2ccccc12 [1-NAPHTHYLISOTHIOCYANATE]
Not Active: IC50 (Thromboxane-A synthase) | IC50 (Glycine receptor) | IC50 [1] | IC50 (Leukotriene C4 synthase) | IC50 [2]

C[C@](O)(CS(=O)(=O)c1ccc(F)cc1)C(=O)Nc1ccc(C#N)c(C(F)(F)F)c1 [(R)-BICALUTAMIDE]
Not Active: IC50 (Thromboxane-A synthase) | IC50 (Glycine receptor) | IC50 [1] | IC50 (Leukotriene C4 synthase) | IC50 [2] | IC50 (Cytochrome P450 1A2) | Ki (Cytochrome P450 1A2)

CCCC(=O)Nc1ccc(OCC(O)CNC(C)C)c(C(C)=O)c1 (configuration not stated) [ACEBUTOLOL]
Not Active: IC50 (Thromboxane-A synthase) | IC50 (Glycine receptor) | IC50 [1] | IC50 (Leukotriene C4 synthase) | IC50 [2] | IC50 (Cytochrome P450 1A2) | Ki (Cytochrome P450 1A2)

CC(=O)Nc1ccc(O)cc1 [ACETAMINOPHEN]
Not Active: IC50 (Thromboxane-A synthase) | IC50 (Glycine receptor) | IC50 [1] | IC50 (Leukotriene C4 synthase) | IC50 [2] | IC50 (Cytochrome P450 1A2) | Ki (Cytochrome P450 1A2)

COc1cc2c(c3oc(=O)c4c(c13)CCC4=O)[C@@H]1C=CO[C@@H]1O2 [AFLATOXIN]
Not Active: IC50 (Thromboxane-A synthase) | Ki (Thromboxane-A synthase) | IC50 (Glycine receptor) | Ki (Glycine receptor) | IC50 [1] | Ki [1] | IC50 (Leukotriene C4 synthase) | Ki (Leukotriene C4 synthase) | IC50 [2] | Ki [2] | IC50 (Cytochrome P450 1A2) | Ki (Cytochrome P450 1A2)

N=C(N)NC(=O)c1nc(Cl)c(N)nc1N [AMILORIDE]
Not Active: IC50 (Thromboxane-A synthase) | IC50 (Glycine receptor) | IC50 [1] | IC50 (Leukotriene C4 synthase) | IC50 [2] | IC50 (Cytochrome P450 1A2) | Ki (Cytochrome P450 1A2)

Cc1cc(=O)n(-c2ccccc2)n1C [ANTIPYRINE]
Not Active: IC50 (Thromboxane-A synthase) | IC50 (Glycine receptor) | IC50 [1] | IC50 (Leukotriene C4 synthase) | IC50 [2] | IC50 (Cytochrome P450 1A2) | Ki (Cytochrome P450 1A2)

O=NN(CCCl)C(=O)NCCCl [CARMUSTINE]
Not Active: IC50 (Thromboxane-A synthase) | IC50 (Glycine receptor) | IC50 [1] | IC50 (Leukotriene C4 synthase) | IC50 [2]

CC1=C(C(=O)O)N2C(=O)[C@@H](NC(=O)[C@H](N)c3ccccc3)[C@H]2SC1 [CEPHALEXIN ANHYDROUS]
Not Active: IC50 (Thromboxane-A synthase) | IC50 (Glycine receptor) | IC50 [1] | IC50 (Leukotriene C4 synthase) | IC50 [2]

O=C(N[C@H](CO)[C@H](O)c1ccc([N+](=O)[O-])cc1)C(Cl)Cl [CHLORAMPHENICOL]
Not Active: IC50 (Thromboxane-A synthase) | IC50 (Glycine receptor) | IC50 [1] | IC50 (Leukotriene C4 synthase) | IC50 [2]

CCOC(=O)C(C)(C)Oc1ccc(Cl)cc1 [CLOFIBRATE]
Not Active: IC50 (Thromboxane-A synthase) | IC50 (Glycine receptor) | IC50 [1] | IC50 (Leukotriene C4 synthase) | IC50 [2]

C[C@@H]1C[C@@H]([C@H](O)CC2CC(=O)NC(=O)C2)C(=O)[C@@H](C)C1 [CYCLOHEXIMIDE]
Not Active: IC50 (Thromboxane-A synthase) | IC50 (Glycine receptor) | IC50 [1] | IC50 (Leukotriene C4 synthase) | IC50 [2]

C/C=C/C[C@@H](C)[C@@H](O)[C@H]1C(=O)N[C@@H](CC)C(=O)N(C)CC(=O)N(C)[C@@H](CC(C)C)C(=O)N[C@@H](C(C)C)C(=O)N(C)[C@@H](CC(C)C)C(=O)N[C@@H](C)C(=O)N[C@H](C)C(=O)N(C)[C@@H](CC(C)C)C(=O)N(C)[C@@H](CC(C)C)C(=O)N(C)[C@@H](C(C)C)C(=O)N1C [CYCLOSPORINE]
Not Active: IC50 (Thromboxane-A synthase) | IC50 (Glycine receptor) | IC50 [1] | IC50 (Leukotriene C4 synthase) | IC50 [2]

COc1ccc2c(c1)[C@]13CCCC[C@@H]1[C@H](C2)N(C)CC3 [DEXTROMETHORPHAN]
Not Active: IC50 (Thromboxane-A synthase) | IC50 (Glycine receptor) | IC50 [1] | IC50 (Leukotriene C4 synthase) | IC50 [2]

NC(=O)NO [HYDROXYUREA]
Not Active: IC50 (Thromboxane-A synthase) | IC50 (Glycine receptor) | IC50 [1] | IC50 (Leukotriene C4 synthase) | IC50 [2]

CC(=O)Nc1cccc(O)c1 [METACETAMOL]
Not Active: IC50 (Thromboxane-A synthase) | IC50 (Glycine receptor) | IC50 [1] | IC50 (Leukotriene C4 synthase) | IC50 [2]

COc1ccc2cc([C@H](C)C(=O)O)ccc2c1 [NAPROXEN]
Not Active: IC50 (Thromboxane-A synthase) | IC50 (Glycine receptor) | IC50 [1] | IC50 (Leukotriene C4 synthase) | IC50 [2]

COC(=O)C1=C(C)NC(C)=C(C(=O)OCC(C)C)C1c1ccccc1[N+](=O)[O-] (configuration not stated) [NISOLDIPINE]
Not Active: IC50 (Thromboxane-A synthase) | IC50 (Glycine receptor) | IC50 [1] | IC50 (Leukotriene C4 synthase) | IC50 [2]

CCn1cc(C(=O)O)c(=O)c2cc(F)c(N3CCN(C)CC3)cc21 [PEFLOXACIN]
Not Active: IC50 (Thromboxane-A synthase) | IC50 (Glycine receptor) | IC50 [1] | IC50 (Leukotriene C4 synthase) | IC50 [2]
